{
  "source": "patent US4728729A",
  "about": "“Cyanoimidazole nucleoside derivatives” (Sumitomo Pharmaceuticals Co., Ltd., priority 1984, dated 1988)",
  "key": {"[1]": {"system": "CCRF-HSB-2 (acute lymphoblastic leukemia)", "assay": "In vitro growth inhibition assay, CCRF-HSB-2", "assay_type": "cell-based", "details": "Homo sapiens; CCRF-HSB-2, suspension culture, 72 hr", "method": "(§1) In vitro growth inhibition activities were determined according to the method described in \"Cancer Research\", Vol. 43, p. 5851-5856 (1983).\n(§2) In the case of suspension culture (lymphoma and leukemia cell lines), cells were cultured with various concentrations of the compound for 72 hr.\n(§3) Cell numbers were counted with a Coulter Counter and IC50 s were calculated."}, "[2]": {"system": "HL-60 (promyelocytic leukemia)", "assay": "In vitro growth inhibition assay, HL-60", "assay_type": "cell-based", "details": "Homo sapiens; HL-60, suspension culture, 72 hr", "method": "as §1, §2, §3"}, "[3]": {"system": "QG-90 (lung small cell carcinoma)", "assay": "In vitro growth inhibition assay, QG-90", "assay_type": "cell-based", "details": "Homo sapiens; QG-90, monolayer culture, 72 to 120 hr", "method": "as §1\n(§4) In the case of monolayer culture (solid tumor cell lines), cells were cultured for 24 hr without the compound in order to allow cells to attach on the culture plate. Then the culture medium was changed to a fresh medium containing various concentrations of the compound. Cells were further cultured for 72 hr to 120 hr, and then removed from the culture plate by 0.125% trypsin and 0.05% EDTA solution.\nas §3"}, "[4]": {"system": "KU-2 (renal cell carcinoma)", "assay": "In vitro growth inhibition assay, KU-2", "assay_type": "cell-based", "details": "Homo sapiens; KU-2, monolayer culture, 72 to 120 hr", "method": "as §1, §4, §3"}, "[5]": {"system": "various types of human tumor cell lines", "assay": "In vitro growth inhibition on various human tumor cell lines (summary)", "assay_type": "cell-based", "method": "as §1, §2, §4, §3"}, "[6]": {"system": "Hela (uterine cervix cancer)", "assay": "In vitro growth inhibition assay, Hela", "assay_type": "cell-based", "details": "Homo sapiens, monolayer culture, 72 to 120 hr", "method": "as §1, §4, §3"}, "[7]": {"system": "SCaBER (bladder squamous carcinoma)", "assay": "In vitro growth inhibition assay, SCaBER", "assay_type": "cell-based", "details": "Homo sapiens, monolayer culture, 72 to 120 hr", "method": "as §1, §4, §3"}, "[8]": {"system": "QG-56 (lung squamous carcinoma)", "assay": "In vitro growth inhibition assay, QG-56", "assay_type": "cell-based", "details": "Homo sapiens; QG-56, monolayer culture, 72 to 120 hr", "method": "as §1, §4, §3"}, "P3HR1 (Burkitt lymphoma)": {"system": "P3HR1 (Burkitt lymphoma)", "assay": "In vitro growth inhibition assay, P3HR1", "assay_type": "cell-based", "details": "Homo sapiens, P3HR-1; P3HR1, suspension culture, 72 hr", "method": "as §1, §2, §3"}, "anti-SRBC PFC response": {"system": "anti-SRBC PFC response", "assay": "Immunosuppressive activity: anti-SRBC PFC response in vivo (Cunningham method)", "design": "species or system mouse", "details": "for Suppression / PFC × 10^-3 / spleen: day 0 to 3; for Suppression: PFC measured day 4; for PFC × 10^-3 / spleen: measured day 4, AV. ± SD., n = 4, control 363 ± 51", "method": "The immunosuppressive activity of the compound of the present invention was assayed in comparison with mizoribine which has been used in immunosuppressive therapy. After a sheep red blood cell preparation (SRBC) was injected in mice, the compounds were administered orally once a day on day 0 to 3 and the plaque forming cell (PFC) number was measured on day 4 by Cunningham method. [Cunningham A. J. et al. Immunol. 14, 599(1968)]."}, "A549 (lung cancer)": {"system": "A549 (lung cancer)", "assay": "In vitro growth inhibition assay, A549", "assay_type": "cell-based", "details": "Homo sapiens; A549, monolayer culture, 72 to 120 hr", "method": "as §1, §4, §3"}, "solid Ehrlich carcinoma": {"system": "solid Ehrlich carcinoma", "assay": "Antitumor effect on solid Ehrlich carcinoma", "assay_type": "in vivo, mouse (ICR/Jcl)", "details": "Days 1,5,9, tumors weighed day 15", "method": "The antitumor activities of the compounds of the present invention were estimated according to the method described in \"Cancer Research\" vol. 43, p. 5851 (1983).\nICR/Jcl male mice, 5 weks old, […], […]. Each test group was composed of 6 mice. Three million cells of Ehrlich carcinoma were injected in the hind leg. The drug was administered orally at days 1, 5, and 9. After sacrificing the mice at day 15, tumors were removed and weighed. The tumor growth inhibitory ratio was calculated according to the following formula. [formula]"}, "DU 145 (prostate cancer)": {"system": "DU 145 (prostate cancer)", "assay": "In vitro growth inhibition assay, DU 145", "assay_type": "cell-based", "details": "Homo sapiens; DU 145, monolayer culture, 72 to 120 hr", "method": "as §1, §4, §3"}, "[9]": {"details": "J. of Antibiotics, vol. 27 p. 775 (1974); Canada Pat. No. 1,078,736; cited from earlier work"}},
  "data": [
    {"molecule": "N#Cc1ncn([C@@H]2O[C@H](CO)[C@@H](O)[C@H]2O)c1O", "note": "[4-cyano-1-β-D-ribofuranosylimidazolium-5-olate]", "values": [
      {"measurement": "IC50", "setting": "[1]", "value": "< 3", "unit": "µM"},
      {"measurement": "IC50", "setting": "[2]", "value": 0.87, "unit": "µM"},
      {"measurement": "IC50", "setting": "[3]", "value": 6.7, "unit": "µM"},
      {"measurement": "IC50", "setting": "[4]", "value": 1, "unit": "µM"},
      {"measurement": "growth inhibitory activities on human tumor cell lines, in words", "setting": "[5]", "value": "potent growth inhibitory activities"},
      {"measurement": "IC50", "setting": "[6]", "value": 4.7, "unit": "µM"},
      {"measurement": "IC50", "setting": "[7]", "value": 5, "unit": "µM"},
      {"measurement": "IC50", "setting": "[8]", "value": 2.8, "unit": "µM"},
      {"measurement": "IC50", "setting": "P3HR1 (Burkitt lymphoma)", "value": 4.6, "unit": "µM"},
      {"measurement": "Suppression", "setting": "anti-SRBC PFC response; 5 mg/day p.o.", "value": 0, "unit": "%"},
      {"measurement": "PFC × 10^-3 / spleen", "setting": "anti-SRBC PFC response; 5 mg/day p.o.", "value": "362 ± 123", "unit": "PFC × 10^-3 / spleen"},
      {"measurement": "Suppression", "setting": "anti-SRBC PFC response; 25 mg/day p.o.", "value": 99, "unit": "%"},
      {"measurement": "PFC × 10^-3 / spleen", "setting": "anti-SRBC PFC response; 25 mg/day p.o.", "value": "4 ± 1", "unit": "PFC × 10^-3 / spleen"},
      {"measurement": "Suppression", "setting": "anti-SRBC PFC response; 50 mg/day p.o.", "value": 100, "unit": "%"},
      {"measurement": "PFC × 10^-3 / spleen", "setting": "anti-SRBC PFC response; 50 mg/day p.o.", "value": 0, "unit": "PFC × 10^-3 / spleen"},
      {"measurement": "immunosuppressive activity compared with mizoribine, in words", "setting": "anti-SRBC PFC response; oral", "value": "more active than mizoribine"},
      {"measurement": "immunosuppressive activity in oral administration, in words", "setting": "anti-SRBC PFC response; oral", "value": "potent activity in oral administration"},
      {"measurement": "IC50", "setting": "A549 (lung cancer)", "value": 8.5, "unit": "µM"},
      {"measurement": "Inhibition ratio (tumor growth)", "setting": "solid Ehrlich carcinoma; 10 mg/kg/day po", "value": 40.1, "unit": "%"},
      {"measurement": "Inhibition ratio (tumor growth)", "setting": "solid Ehrlich carcinoma; 20 mg/kg/day po", "value": 73.6, "unit": "%"},
      {"measurement": "Inhibition ratio (tumor growth)", "setting": "solid Ehrlich carcinoma; 40 mg/kg/day po", "value": 99.8, "unit": "%"},
      {"measurement": "Inhibition ratio (tumor growth)", "setting": "solid Ehrlich carcinoma; 80 mg/kg/day po", "value": 99.8, "unit": "%"},
      {"measurement": "IC50", "setting": "DU 145 (prostate cancer)", "value": 4.4, "unit": "µM"}
    ]},
    {"molecule": "NC(=O)c1ncn([C@@H]2O[C@H](CO)[C@@H](O)[C@H]2O)c1O", "note": "[Mizoribine, 4-carbamoyl-1-β-D-ribofuranosylimidazolium-5-olate, reference compound]", "values": [
      {"measurement": "immunosuppressive and antitumor activities, in words", "setting": "[9]", "value": "immunosuppressive and antitumor activities"},
      {"measurement": "Suppression", "setting": "anti-SRBC PFC response; 5 mg/day p.o.", "value": 0, "unit": "%"},
      {"measurement": "PFC × 10^-3 / spleen", "setting": "anti-SRBC PFC response; 5 mg/day p.o.", "value": "496 ± 140", "unit": "PFC × 10^-3 / spleen"},
      {"measurement": "Suppression", "setting": "anti-SRBC PFC response; 25 mg/day p.o.", "value": 69, "unit": "%"},
      {"measurement": "PFC × 10^-3 / spleen", "setting": "anti-SRBC PFC response; 25 mg/day p.o.", "value": "113 ± 53", "unit": "PFC × 10^-3 / spleen"},
      {"measurement": "Suppression", "setting": "anti-SRBC PFC response; 50 mg/day p.o.", "value": 89, "unit": "%"},
      {"measurement": "PFC × 10^-3 / spleen", "setting": "anti-SRBC PFC response; 50 mg/day p.o.", "value": "39 ± 43", "unit": "PFC × 10^-3 / spleen"}
    ]},
    {"molecule": "NC(=O)c1nc[nH]c1O", "note": "[4-carbamoylimidazolium-5-olate]", "values": [
      {"measurement": "immunosuppressive and antitumor activities, in words", "setting": "[9]", "value": "immunosuppressive and antitumor activities"}
    ]}
  ]
}
